Paper PMC6522524 (Nature Communications, 2019)
Values joined by “and” are separate entries in the source; they are usually repeats but may differ in a detail not shown here. Equal values may be shown once. Read-outs that look alike come from different tables or passages of the source.

Legend:
[1] = target: T1, Cp149 (truncated HBV core protein) (Hepatitis B virus genotype D subtype ayw, UniProt P03146); experiment: biochemical; details: for Relative intensity, anti core-native gel, individual samples: Sample1-2; for HBV capsid assembly inhibitory activity in vitro (Supplementary Fig. 8): Cp149
T1 construct: Cp149 (amino acids 1–149) is a truncated form of the HBV core protein; made in house; host or cells: Escherichia coli
T1 sequence (P03146 1-149): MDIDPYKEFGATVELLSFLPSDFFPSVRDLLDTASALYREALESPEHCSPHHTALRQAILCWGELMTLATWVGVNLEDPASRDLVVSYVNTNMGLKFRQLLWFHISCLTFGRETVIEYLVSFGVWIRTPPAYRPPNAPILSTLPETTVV

[2] = target: HBV core protein (pCDNA3-Core, Y118 wild-type) in Huh-7 cells (Hepatitis B virus genotype C, UniProt P0C6H6); experiment: cell-based; type: cell-based; details: for activity at 0.1 µM: Huh-7, Y118, 0.1 μM; for activity at 0.5 µM: Huh-7, Y118, 0.5 μM; for activity at 1 µM: Huh-7, Y118, 1 μM; for activity at 5 µM: Huh-7, Y118, 5 μM; for activity at 10 µM: Huh-7, Y118, 10 μM; for HBV capsid assembly inhibitory activity in vivo (Fig. 3d): Huh-7, pCDNA3-Core
Chain of HBV core protein (pCDNA3-Core, Y118 wild-type) in Huh-7 cells (P0C6H6 whole entry): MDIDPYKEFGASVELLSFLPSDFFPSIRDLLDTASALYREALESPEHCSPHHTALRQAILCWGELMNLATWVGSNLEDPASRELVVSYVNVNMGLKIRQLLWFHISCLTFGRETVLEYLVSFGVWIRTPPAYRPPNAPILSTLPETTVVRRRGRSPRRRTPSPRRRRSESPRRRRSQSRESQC

[3] = test system: total HBV core protein in Huh-7 cells; type: cell-based, Hepatitis B virus; details: for total core protein: treatment time increased; for Relative Core mRNA level(Folds), individual samples: Sample1-3
Method: the indicated times. The cells were lysed and assembled HBV core particles were isolated by sucrose step-gradient ultracentrifugation, resolved on 1 % agarose gels, and subjected to immunoblot analysis with anti-HBV core antibody. Total intracellular HBV core protein was also determined by immunoblot analysis in the cell lysates. Core mRNA levels were measured by quantitative RT-PCR. The data

[4] = Sample1-3, read-out: Relative intensity (Folds), intracellular capsid, individual samples
[5] = read-out: Relative intensity (Folds), intracellular capsid, AVERAGE
[6] = Y118, 0.1 μM, Sample1-3, 0.1 µM
[7] = Y118, 0.5 μM, Sample1-3, 0.5 µM

CC1(CC(=O)O)CC(C2CCCCC2)=NO1 (racemic) [(RS)-2-(3-cyclohexyl-5-methyl-4,5-dihydroisoxazol-5-yl)acetic Acid]
Relative intensity, anti core-native gel, AVERAGE ([1]; Drug Concentration 0.1 μM): 0.9301
Relative intensity, anti core-native gel, individual samples ([1]; Drug Concentration 0.1 μM): 1.019 and 0.8411
Relative intensity, anti core-native gel, AVERAGE ([1]; Drug Concentration 0.2 μM): 1.003
Relative intensity, anti core-native gel, individual samples ([1]; Drug Concentration 0.2 μM): 1.033 and 0.9731
Relative intensity, anti core-native gel, AVERAGE ([1]; Drug Concentration 0.5 μM): 0.9877
Relative intensity, anti core-native gel, individual samples ([1]; Drug Concentration 0.5 μM): 0.9703 and 1.005
Relative intensity, anti core-native gel, AVERAGE ([1]; Drug Concentration 1 μM): 0.9712
Relative intensity, anti core-native gel, individual samples ([1]; Drug Concentration 1 μM): 1.074 and 0.8679
Relative intensity, anti core-native gel, AVERAGE ([1]; Drug Concentration 2 μM): 0.9867
Relative intensity, anti core-native gel, individual samples ([1]; Drug Concentration 2 μM): 1.072 and 0.9014
Relative intensity, anti core-native gel, AVERAGE ([1]; Drug Concentration 5 μM): 0.9809
Relative intensity, anti core-native gel, individual samples ([1]; Drug Concentration 5 μM): 1.098 and 0.8634
Relative intensity, anti core-native gel, AVERAGE ([1]; Drug Concentration 10 μM): 1.051
Relative intensity, anti core-native gel, individual samples ([1]; Drug Concentration 10 μM): 1.175 and 0.9277

Cc1cc(C2CCCCC2)[nH]c(=O)c1 [Compound 2, 6-Cyclohexyl-4-methyl pyridin-2(1H)-one]
activity at 0.1 µM [2, 4]: 94%
activity at 0.1 µM [2, 5]: 96.2%
activity at 0.5 µM [2, 4]: 96.4%
activity at 0.5 µM [2, 5]: 98.6%
activity at 1 µM [2, 4]: 90.2%
activity at 1 µM [2, 5]: 101%
activity at 5 µM [2, 4]: 85.6%
activity at 5 µM [2, 5]: 95.8%
activity at 10 µM [2, 4]: 87.2%
activity at 10 µM [2, 5]: 99.5%
HBV capsid assembly inhibitory activity in vivo (Fig. 3d) [2]: blocked its HBV capsid assembly inhibitory activity
Relative intensity (Folds), intracellular capsid, individual samples [2, 6]: 1.008 Folds and 0.9391 Folds
Relative intensity (Folds), intracellular capsid, individual samples [2, 7]: 1.032 Folds and 0.9631 Folds
Relative intensity (Folds), intracellular capsid, individual samples ([2]; Y118, 1 μM, Sample1-3, 1 µM): 1.06 Folds and 1.081 Folds
Relative intensity (Folds), intracellular capsid, individual samples ([2]; Y118, 5 μM, Sample1-3, 5 µM): 1.004 Folds and 1.015 Folds
Relative intensity (Folds), intracellular capsid, individual samples ([2]; Y118, 10 μM, Sample1-3, 10 µM): 1.04 Folds and 1.071 Folds
HBV capsid assembly inhibitory activity in vitro (Supplementary Fig. 8) [1]: blocked its HBV capsid assembly inhibitory activity
Relative intensity, anti core-native gel, AVERAGE ([1]; Drug Concentration 0.1 μM): 0.9832
Relative intensity, anti core-native gel, individual samples ([1]; Drug Concentration 0.1 μM): 0.9055 and 1.061
Relative intensity, anti core-native gel, AVERAGE ([1]; Drug Concentration 0.2 μM): 1.01
Relative intensity, anti core-native gel, individual samples ([1]; Drug Concentration 0.2 μM): 0.8978 and 1.1231
Relative intensity, anti core-native gel, AVERAGE ([1]; Drug Concentration 0.5 μM): 0.9545
Relative intensity, anti core-native gel, individual samples ([1]; Drug Concentration 0.5 μM): 0.9595 and 0.9494
Relative intensity, anti core-native gel, AVERAGE ([1]; Drug Concentration 1 μM): 0.9058
Relative intensity, anti core-native gel, individual samples ([1]; Drug Concentration 1 μM): 0.865 and 0.9466
Relative intensity, anti core-native gel, AVERAGE ([1]; Drug Concentration 2 μM): 0.9815
Relative intensity, anti core-native gel, individual samples ([1]; Drug Concentration 2 μM): 0.9391 and 1.024
Relative intensity, anti core-native gel, AVERAGE ([1]; Drug Concentration 5 μM): 0.9702
Relative intensity, anti core-native gel, individual samples ([1]; Drug Concentration 5 μM): 0.8581 and 1.082
Relative intensity, anti core-native gel, AVERAGE ([1]; Drug Concentration 10 μM): 0.8707
Relative intensity, anti core-native gel, individual samples ([1]; Drug Concentration 10 μM): 0.8904 and 0.851

Cc1cc(C2CCCCC2)oc(=O)c1 [Compound 3, 6-Cyclohexyl-4-methyl-2–pyrone]
activity at 0.1 µM [2, 4]: 109%
activity at 0.1 µM [2, 5]: 119%
activity at 0.5 µM [2, 5]: 113%
activity at 1 µM [2, 4]: 103%
activity at 1 µM [2, 5]: 106%
activity at 5 µM [2, 4]: 110%
activity at 5 µM [2, 5]: 115%
activity at 10 µM [2, 5]: 115%
HBV capsid assembly inhibitory activity in vivo (Fig. 3d) [2]: blocked its HBV capsid assembly inhibitory activity
Relative intensity (Folds), intracellular capsid, individual samples [2, 6]: 1.2405 Folds and 1.2516 Folds
Relative intensity (Folds), intracellular capsid, individual samples [2, 7]: 0.9808 Folds and 1.196 Folds and 1.214 Folds
Relative intensity (Folds), intracellular capsid, individual samples ([2]; Y118, 1 μM, Sample1-3, 1 µM): 1.107 Folds and 1.042 Folds
Relative intensity (Folds), intracellular capsid, individual samples ([2]; Y118, 5 μM, Sample1-3, 5 µM): 1.192 Folds and 1.143 Folds
Relative intensity (Folds), intracellular capsid, individual samples ([2]; Y118, 10 μM, Sample1-3, 10 µM): 0.9807 Folds and 1.199 Folds and 1.28 Folds
HBV capsid assembly inhibitory activity in vitro (Supplementary Fig. 8) [1]: blocked its HBV capsid assembly inhibitory activity
Relative intensity, anti core-native gel, AVERAGE ([1]; Drug Concentration 0.1 μM): 0.9537
Relative intensity, anti core-native gel, individual samples ([1]; Drug Concentration 0.1 μM, listed as 6-Cycloxexyl-4-methyl-2-pyrone): 0.8748 and 1.033
Relative intensity, anti core-native gel, AVERAGE ([1]; Drug Concentration 0.2 μM): 0.9345
Relative intensity, anti core-native gel, individual samples ([1]; Drug Concentration 0.2 μM, listed as 6-Cycloxexyl-4-methyl-2-pyrone): 0.9048 and 0.9643
Relative intensity, anti core-native gel, AVERAGE ([1]; Drug Concentration 0.5 μM): 0.8949
Relative intensity, anti core-native gel, individual samples ([1]; Drug Concentration 0.5 μM, listed as 6-Cycloxexyl-4-methyl-2-pyrone): 0.8127 and 0.9771
Relative intensity, anti core-native gel, AVERAGE ([1]; Drug Concentration 1 μM): 0.9182
Relative intensity, anti core-native gel, individual samples ([1]; Drug Concentration 1 μM, listed as 6-Cycloxexyl-4-methyl-2-pyrone): 0.8468 and 0.9896
Relative intensity, anti core-native gel, AVERAGE ([1]; Drug Concentration 2 μM): 0.8055
Relative intensity, anti core-native gel, individual samples ([1]; Drug Concentration 2 μM, listed as 6-Cycloxexyl-4-methyl-2-pyrone): 0.798 and 0.8131
Relative intensity, anti core-native gel, AVERAGE ([1]; Drug Concentration 5 μM): 0.9044
Relative intensity, anti core-native gel, individual samples ([1]; Drug Concentration 5 μM, listed as 6-Cycloxexyl-4-methyl-2-pyrone): 0.8531 and 0.9558
Relative intensity, anti core-native gel, AVERAGE ([1]; Drug Concentration 10 μM): 1.014
Relative intensity, anti core-native gel, individual samples ([1]; Drug Concentration 10 μM, listed as 6-Cycloxexyl-4-methyl-2-pyrone): 0.9919 and 1.036

Bay41–4109
total core protein [3]: decreased

GLS-4
Relative intensity (Folds), in vitro core assembly, individual samples [1]: 1.0339 Folds and 1.019 Folds and 0.9819 Folds and 1.079 Folds and 1.058 Folds and 1.102 Folds and 0.3491 Folds and 0.342 Folds and 0.3462 Folds and 0.1267 Folds and 0.1171 Folds and 0.123 Folds and 0.01326 Folds and 0.01176 Folds and 0.01165 Folds and 0 Folds (6×)
Relative Core mRNA level(Folds), AVERAGE ([3]; 1.5day, 0.1 μM): 0.9973 Folds
Relative Core mRNA level(Folds), individual samples ([3]; 1.5day, 0.1 μM): 1.007 Folds and 1.003 Folds and 0.9824 Folds
Relative Core mRNA level(Folds), AVERAGE ([3]; 1.5day, 0.5 μM): 1.0017 Folds
Relative Core mRNA level(Folds), individual samples ([3]; 1.5day, 0.5 μM): 0.9742 Folds and 0.987 Folds and 1.044 Folds
Relative Core mRNA level(Folds), AVERAGE ([3]; 1.5day, 1 μM): 0.9997 Folds
Relative Core mRNA level(Folds), individual samples ([3]; 1.5day, 1 μM): 1.008 Folds and 0.9861 Folds and 1.005 Folds
Relative Core mRNA level(Folds), AVERAGE ([3]; 1.5day, 5 μM): 1.008 Folds
Relative Core mRNA level(Folds), individual samples ([3]; 1.5day, 5 μM): 1.002 Folds and 0.9963 Folds and 1.025 Folds
Relative Core mRNA level(Folds), AVERAGE ([3]; 1.5day, 10 μM): 0.9997 Folds
Relative Core mRNA level(Folds), individual samples ([3]; 1.5day, 10 μM): 0.9972 Folds and 0.9916 Folds and 1.01 Folds
Relative Core mRNA level(Folds), AVERAGE ([3]; 2.5day, 0.1 μM): 0.9923 Folds
Relative Core mRNA level(Folds), individual samples ([3]; 2.5day, 0.1 μM): 1.007 Folds and 0.9944 Folds and 0.976 Folds
Relative Core mRNA level(Folds), AVERAGE ([3]; 2.5day, 0.5 μM): 0.9898 Folds
Relative Core mRNA level(Folds), individual samples ([3]; 2.5day, 0.5 μM): 1 Folds and 0.9926 Folds and 0.9769 Folds
Relative Core mRNA level(Folds), AVERAGE ([3]; 2.5day, 1 μM): 0.9998 Folds
Relative Core mRNA level(Folds), individual samples ([3]; 2.5day, 1 μM): 1.0179 Folds and 1.005 Folds and 0.9769 Folds
Relative Core mRNA level(Folds), AVERAGE ([3]; 2.5day, 5 μM): 0.9873 Folds
Relative Core mRNA level(Folds), individual samples ([3]; 2.5day, 5 μM): 0.9861 Folds and 0.9889 Folds and 0.987 Folds
Relative Core mRNA level(Folds), AVERAGE ([3]; 2.5day, 10 μM): 1.003 Folds
Relative Core mRNA level(Folds), individual samples ([3]; 2.5day, 10 μM): 1.007 Folds and 1.001 Folds
Relative Core mRNA level(Folds), AVERAGE ([3]; 4.5day, 0.1 μM): 0.9929 Folds
Relative Core mRNA level(Folds), individual samples ([3]; 4.5day, 0.1 μM): 1.007 Folds and 0.9944 Folds and 0.9778 Folds
Relative Core mRNA level(Folds), AVERAGE ([3]; 4.5day, 0.5 μM): 0.9886 Folds
Relative Core mRNA level(Folds), individual samples ([3]; 4.5day, 0.5 μM): 1 Folds and 0.9889 Folds and 0.9769 Folds
Relative Core mRNA level(Folds), AVERAGE ([3]; 4.5day, 1 μM): 0.9986 Folds
Relative Core mRNA level(Folds), individual samples ([3]; 4.5day, 1 μM): 1.0179 Folds and 1.001 Folds and 0.9769 Folds
Relative Core mRNA level(Folds), AVERAGE ([3]; 4.5day, 5 μM): 0.9904 Folds
Relative Core mRNA level(Folds), individual samples ([3]; 4.5day, 5 μM): 0.9861 Folds and 0.9981 Folds and 0.987 Folds
Relative Core mRNA level(Folds), AVERAGE ([3]; 4.5day, 10 μM): 0.9982 Folds
Relative Core mRNA level(Folds), individual samples ([3]; 4.5day, 10 μM): 1.007 Folds and 0.9916 Folds and 0.9963 Folds
total core protein [3]: decreased
